Assays:
human liver hepatocytes = test: Intrinsic clearance in human liver hepatocytes; assay type: in vitro ADME; details: human cryopreserved hepatocytes, 0.5 μM test compound
Description: Vials of human cryopreserved hepatocytes, supplied by Life Technologies, were thawed according to manufacturer's instructions and cells re-suspended in Williams Medium E (WME) containing cell maintenance supplement pack (CM4000, Life Technologies). Hepatocytes were incubated in suspension (0.5 million cells/mL) in 48 well non-collagen coated cell culture plates for 10 min at 37° C., 5% CO2. Upon addition of an equal volume of supplemented WME containing 1 μM test compound, an aliquot of incubation solution was removed to acetonitrile containing internal standard (final concentration 0.5 μM test compound and a cell density of 0.25 million cells/mL). Similarly, aliquots were removed at 3, 6, 9, 15, 30, 45, 60, 90 and 120 min. 100 μL of 80:20 water:acetonitrile was added to all samples and the analysis plate was centrifuged for 10 min at RT prior to injection and analysis of samples by UPLC-MS/MS. The response (area ratio of test compound to internal standard) was plotted against time using an exponential decay model from which rate of disappearance was calculated.

BRD4 BD1 = BRD4 BD1 (Homo sapiens (Human), UniProt O60885); test: Bromodomain binding assay (T7 phage display, qPCR), BRD4 BD1; details: read-out: BRD4 BD1 Kd
Description: T7 phage strains displaying bromodomains were grown in parallel in 24-well blocks in an E. coli host derived from the BL21 strain. E. coli were grown to log-phase and infected with T7 phage from a frozen stock (multiplicity of infection=0.4) and incubated with shaking at 32° C. until lysis (90-150 min). The lysates were centrifuged (5,000×g) and filtered (0.2 μm) to remove cell debris. Streptavidin-coated magnetic beads were treated with biotinylated small molecule or acetylated peptide ligands for 30 min at RT to generate affinity resins for bromodomain assays. The ligated beads were blocked with excess biotin and washed with blocking buffer (SeaBlock (Pierce), 1% BSA, 0.05% Tween 20, 1 mM DTT) to remove unbound ligand and to reduce non-specific phage binding. Binding reactions were assembled by combining bromodomains, ligated affinity beads, and test compounds in 1× binding buffer (16% SeaBlock, 0.32×PBS, 0.02% BSA, 0.04% Tween 20, 0.004% Sodium azide, 7.9 mM DTT). Test compounds were prepared as 1000× stocks in 100% DMSO and subsequently diluted 1:25 in MEG. The compounds were then diluted directly into the assays such that the final concentrations of DMSO and MEG were 0.1% and 2.4%, respectively. All reactions were performed in polypropylene 384-well plates in a final volume of 0.02 ml. The assay plates were incubated at RT with shaking for 1 hr and the affinity beads were washed with wash buffer (1×PBS, 0.05% Tween 20). The beads were then re-suspended in elution buffer (1×PBS, 0.05% Tween 20, 2 μM non-biotinylated affinity ligand) and incubated at RT with shaking for 30 min. The bromodomain concentration in the eluates was measured by quantitative polymerase chain reaction (qPCR).
An 11-point 3-fold serial dilution of each test compound was prepared in 100% DMSO at 1000× final test concentration. All compounds were distributed by acoustic transfer (non-contact dispensing) in 100% DMSO. The compounds were then diluted directly into the assays such that the final concentration of DMSO was 0.09%. Most dissociation constants were determined using a compound top concentration=10,000 nM. If the initial dissociation constant determined was <0.169 nM (the lowest concentration tested), the measurement was repeated with a serial dilution starting at a lower top concentration.
The same bromodomain assay procedure as that outlined above was used. Example compounds were screened at 30 times their Kd, and results for primary screen binding interactions are reported as ‘% Ctrl’, where lower numbers indicate stronger hits in the matrix.

Row | Structure (SMILES) | Intrinsic clearance, % Liver Blood Flow (human liver hepatocytes) [% Liver Blood Flow] | Kd (BRD4 BD1) [nM]
1 | Cn1cc(-c2cc(O)ccc2OC2CCCCC2)c2cc[nH]c2c1=O [Example 11, 4-(2-(cyclohexyloxy)-5-hydroxyphenyl)-6-methyl-1,6-dihydro-7H-pyrrolo[2,3-c]pyridin-7-one] | 97 | ≤ 10
2 | COC1CCC(Oc2ccc(O)cc2-c2cn(C)c(=O)c3[nH]ccc23)CC1 (stereo not drawn) [Example 12, 4-(5-hydroxy-2-((4-methoxycyclohexyl)oxy)phenyl)-6-methyl-1,6-dihydro-7H-pyrrolo[2,3-c]pyridin-7-one] | 82 | ≤ 10
3 | Cn1cc(-c2scnc2Oc2ccccc2O)ccc1=O [Example 21, 5-(4-(2-hydroxyphenoxy)thiazol-5-yl)-1-methylpyridin-2(1H)-one] |  | 100 to 1000
4 | COc1ccc(Oc2cn(C)c(=O)cc2-c2cn(C)c(=O)c3[nH]ccc23)cc1 [Example 25, 4-(5-(4-methoxyphenoxy)-1-methyl-2-oxo-1,2-dihydropyridin-4-yl)-6-methyl-1,6-dihydro-7H-pyrrolo[2,3-c]pyridin-7-one] | 38 | 10 to 100
5 | Cn1cc(Oc2ccc(O)cc2)c(-c2cn(C)c(=O)c3[nH]ccc23)cc1=O [Example 26, 4-(5-(4-hydroxyphenoxy)-1-methyl-2-oxo-1,2-dihydropyridin-4-yl)-6-methyl-1,6-dihydro-7H-pyrrolo[2,3-c]pyridin-7-one] | <34 | 10 to 100
6 | COc1ccc(Oc2cn(C)c(=O)cc2-c2ccc(=O)n(C)c2)cc1 [Example 27, 5′-(4-methoxyphenoxy)-1,1′-dimethyl-[3,4′-bipyridine]-2′,6(1H,1′H)-dione] | <34 | 100 to 1000
7 | Cn1cc(-c2cc(=O)n(C)cc2Oc2ccc(O)cc2)ccc1=O [Example 28] | <34 | 100 to 1000
8 | Cn1cc(-c2cc(=O)n(C)cc2Oc2cccc(O)c2)ccc1=O [Example 29, 5′-(3-hydroxyphenoxy)-1,1′-dimethyl-[3,4′-bipyridine]-2′,6(1H,1′H)-dione] | <34 | 10 to 100
9 | COc1ccc(Oc2c(-c3cn(C)c(=O)c4[nH]ccc34)ccn(C)c2=O)cc1 [Example 34, 4-(3-(4-methoxyphenoxy)-1-methyl-2-oxo-1,2-dihydropyridin-4-yl)-6-methyl-1,6-dihydro-7H-pyrrolo[2,3-c]pyridin-7-one] | <34 | 10 to 100
10 | Cn1cc(-c2ccn(C)c(=O)c2Oc2ccccc2O)ccc1=O [Example 36, 3′-(2-hydroxyphenoxy)-1,1′-dimethyl-[3,4′-bipyridine]-2′,6(1H,1′H)-dione] |  | 100 to 1000
11 | Cn1cc(-c2ccn(C)c(=O)c2Oc2cccc(O)c2)ccc1=O [Example 37, 3′-(3-hydroxyphenoxy)-1,1′-dimethyl-[3,4′-bipyridine]-2′,6(1H,1′H)-dione] |  | 100 to 1000
12 | Cn1cc(-c2ccn(C)c(=O)c2Oc2ccc(O)cc2)ccc1=O [Example 38, 3′-(4-hydroxyphenoxy)-1,1′-dimethyl-[3,4′-bipyridine]-2′,6(1H,1′H)-dione] |  | 100 to 1000

The next lines start with the values.

Row | Intrinsic clearance, % Liver Blood Flow (human liver hepatocytes) [% Liver Blood Flow] | Kd (BRD4 BD1) [nM] | Structure (SMILES)
13 | 95 | 10 to 100 | CCCOc1ccc(O)cc1-c1cn(C)c(=O)c2[nH]ccc12 [Example 9, 4-(5-hydroxy-2-propoxyphenyl)-6-methyl-1,6-dihydro-7H-pyrrolo[2,3-c]pyridin-7-one]
14 | 34 | 100 to 1000 | Cn1cc(Cc2ccccc2)c(-c2cn(C)c(=O)c3[nH]ccc23)cc1=O [Example 13, 4-(5-benzyl-1-methyl-2-oxo-1,2-dihydropyridin-4-yl)-6-methyl-1,6-dihydro-7H-pyrrolo[2,3-c]pyridin-7-one]
15 |  | 100 to 1000 | Cn1cc(-c2ccnn2Cc2ccccc2)c2cc[nH]c2c1=O [Example 14, 4-(1-benzyl-1H-pyrazol-5-yl)-6-methyl-1,6-dihydro-7H-pyrrolo[2,3-c]pyridin-7-one]
16 |  | 100 to 1000 | Cn1cc(-c2nccn2Cc2ccccc2)c2cc[nH]c2c1=O [Example 15, 4-(1-benzyl-1H-imidazol-2-yl)-6-methyl-1,6-dihydro-7H-pyrrolo[2,3-c]pyridin-7-one]
17 |  | 100 to 1000 | Cn1cc(-c2ncnn2Cc2ccccc2)c2cc[nH]c2c1=O [Example 16, 4-(1-benzyl-1H-1,2,4-triazol-5-yl)-6-methyl-1,6-dihydro-7H-pyrrolo[2,3-c]pyridin-7-one]
18 |  | 10 to 100 | Cn1cc(-c2scnc2Cc2ccccc2)c2cc[nH]c2c1=O [Example 17, 4-(4-benzylthiazol-5-yl)-6-methyl-1,6-dihydro-7H-pyrrolo[2,3-c]pyridin-7-one]
19 |  | 100 to 1000 | Cn1cc(-c2scnc2Oc2ccccc2O)c2cc[nH]c2c1=O [Example 19, 4-(4-(2-hydroxyphenoxy)thiazol-5-yl)-6-methyl-1,6-dihydro-7H-pyrrolo[2,3-c]pyridin-7-one]
20 | <34 | 100 to 1000 | Cn1cc(Oc2ccccc2O)c(-c2cn(C)c(=O)c3[nH]ccc23)cc1=O [Example 22, 4-(5-(2-hydroxyphenoxy)-1-methyl-2-oxo-1,2-dihydropyridin-4-yl)-6-methyl-1,6-dihydro-7H-pyrrolo[2,3-c]pyridin-7-one]
21 | 38 | 10 to 100 | COc1cccc(Oc2cn(C)c(=O)cc2-c2cn(C)c(=O)c3[nH]ccc23)c1 [Example 23, 4-(5-(3-methoxyphenoxy)-1-methyl-2-oxo-1,2-dihydropyridin-4-yl)-6-methyl-1,6-dihydro-7H-pyrrolo[2,3-c]pyridin-7-one]
22 | <34 | 10 to 100 | COc1ccccc1Oc1c(-c2cn(C)c(=O)c3[nH]ccc23)ccn(C)c1=O [Example 30, 4-(3-(2-methoxyphenoxy)-1-methyl-2-oxo-1,2-dihydropyridin-4-yl)-6-methyl-1,6-dihydro-7H-pyrrolo[2,3-c]pyridin-7-one]
23 | <34 | 10 to 100 | Cn1ccc(-c2cn(C)c(=O)c3[nH]ccc23)c(Oc2ccccc2O)c1=O [Example 31, 4-(3-(2-hydroxyphenoxy)-1-methyl-2-oxo-1,2-dihydropyridin-4-yl)-6-methyl-1,6-dihydro-7H-pyrrolo[2,3-c]pyridin-7-one]
24 | <34 | 10 to 100 | COc1cccc(Oc2c(-c3cn(C)c(=O)c4[nH]ccc34)ccn(C)c2=O)c1 [Example 32, 4-(3-(3-methoxyphenoxy)-1-methyl-2-oxo-1,2-dihydropyridin-4-yl)-6-methyl-1,6-dihydro-7H-pyrrolo[2,3-c]pyridin-7-one]
25 | <34 | ≤ 10 | Cn1ccc(-c2cn(C)c(=O)c3[nH]ccc23)c(Oc2cccc(O)c2)c1=O [Example 33, 4-(3-(3-hydroxyphenoxy)-1-methyl-2-oxo-1,2-dihydropyridin-4-yl)-6-methyl-1,6-dihydro-7H-pyrrolo[2,3-c]pyridin-7-one]
26 |  | 10 to 100 | Cn1ccc(-c2cn(C)c(=O)c3[nH]ccc23)c(Oc2ccc(O)cc2)c1=O [Example 35, 4-(3-(4-hydroxyphenoxy)-1-methyl-2-oxo-1,2-dihydropyridin-4-yl)-6-methyl-1,6-dihydro-7H-pyrrolo[2,3-c]pyridin-7-one]
